Data on 18 molecules can be found in ChEMBL document CHEMBL3091317, “Inhibition of cholinesterase and monoamine oxidase-B activity by Tacrine-Homoisoflavonoid hybrids” (Bioorg Med Chem, 2013).

For series [1], the target named is T1, Amine oxidase [flavin-containing] B (Homo sapiens, UniProt P27338).
T1 sequence (P27338 whole entry): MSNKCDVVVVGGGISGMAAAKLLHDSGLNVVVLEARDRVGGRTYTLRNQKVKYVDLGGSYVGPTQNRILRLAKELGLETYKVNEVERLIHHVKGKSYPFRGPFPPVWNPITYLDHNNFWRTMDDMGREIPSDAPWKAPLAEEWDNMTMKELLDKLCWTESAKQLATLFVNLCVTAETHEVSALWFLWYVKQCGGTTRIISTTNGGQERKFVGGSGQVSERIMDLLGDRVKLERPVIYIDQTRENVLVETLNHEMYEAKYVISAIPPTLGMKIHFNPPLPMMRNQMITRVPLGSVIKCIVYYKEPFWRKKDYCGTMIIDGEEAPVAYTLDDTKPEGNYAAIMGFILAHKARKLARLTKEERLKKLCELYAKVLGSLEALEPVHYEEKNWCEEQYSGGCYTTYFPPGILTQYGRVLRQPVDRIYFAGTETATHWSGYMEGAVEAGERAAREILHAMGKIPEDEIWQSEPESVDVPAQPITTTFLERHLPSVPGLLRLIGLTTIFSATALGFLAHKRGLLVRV
Description: Inhibition of human recombinant MAO-B using benzylamine as substrate preincubated for 15 mins under dark condition followed by substrate addition measured after 20 mins by fluorescence assay

The next series deals with Cholinesterase (Equus caballus, UniProt P81908).
Series [2] concerns the target T2, Amine oxidase [flavin-containing] A (Homo sapiens, UniProt P21397).
T2 sequence (P21397 whole entry): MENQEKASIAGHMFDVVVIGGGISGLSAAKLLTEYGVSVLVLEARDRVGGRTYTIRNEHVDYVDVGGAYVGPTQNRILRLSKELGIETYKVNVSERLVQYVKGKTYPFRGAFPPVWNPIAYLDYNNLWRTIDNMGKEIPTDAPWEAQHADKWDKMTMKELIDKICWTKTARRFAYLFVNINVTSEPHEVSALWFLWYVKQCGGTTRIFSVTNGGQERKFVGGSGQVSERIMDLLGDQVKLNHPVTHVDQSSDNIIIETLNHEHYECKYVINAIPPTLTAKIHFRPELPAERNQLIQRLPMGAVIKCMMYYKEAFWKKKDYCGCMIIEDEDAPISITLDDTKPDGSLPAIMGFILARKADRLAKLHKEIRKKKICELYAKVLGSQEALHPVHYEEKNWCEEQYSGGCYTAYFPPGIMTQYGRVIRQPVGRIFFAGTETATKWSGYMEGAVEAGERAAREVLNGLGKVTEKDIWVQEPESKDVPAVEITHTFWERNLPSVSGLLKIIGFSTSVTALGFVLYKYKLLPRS
As to conditions: 20 min, read-out: INH.
Description: Inhibition of human recombinant MAO-A using p-tyramine as substrate assessed as formation of H2O2 at 100 uM preincubated for 15 mins under dark condition followed by substrate addition measured after 20 mins by fluorescence assay relative to control

Series [3] concerns the target Acetylcholinesterase (Electrophorus electricus, UniProt O42275).
Description: Inhibition of electric eel AChE using acetylthiocholine chloride as substrate preincubated for 15 mins followed by substrate addition measured every 1 min by Ellman method
The target in series [4] is T1, Amine oxidase [flavin-containing] B. The series can be described thus: Inhibition of human recombinant MAO-B using benzylamine as substrate at 20 uM preincubated for 15 mins under dark condition followed by substrate addition measured after 20 mins by fluorescence assay.
A short description of another series: in vitro. Conditions: PAMPA. (PAMPA measures passive passage across an artificial lipid membrane.)
Series [5] deals with T3, Acetylcholinesterase (Homo sapiens, UniProt P22303). The series is described as follows: Inhibition of human erythrocytic AChE using acetylthiocholine chloride as substrate preincubated for 15 mins followed by substrate addition measured every 1 min by Ellman method.
Series [6] has as its target T3, Acetylcholinesterase. The series is described as follows: Inhibition of AChE (unknown origin)-induced beta-amyloid aggregation.
Series [7] deals with T1, Amine oxidase [flavin-containing] B. The series is described as follows: Irreversible inhibition of human recombinant MAO-B at 400 nM preincubated for 15 mins followed by repeated washing by centrifugation-ultrafiltration method relative to control.
In series [8] the target is Acetylcholinesterase (Electrophorus electricus) (UniProt O42275). The series is described as follows: Mixed-type inhibition of electric eel AChE using acetylthiocholine chloride as substrate assessed as decrease in Vmax at 60 to 100 nM preincubated for 15 mins followed by substrate addition by Lineweaver-Burk plot analysis.
Series [9] concerns the target T1, Amine oxidase [flavin-containing] B. The series can be described thus: Inhibition of human recombinant MAO-B at 1 uM incubated for 15 mins prior to washing relative to control. As to conditions: 0.25 h.
Series [10] shares this target. The series is described as follows: Inhibition of human recombinant MAO-B at 400 nM incubated for 15 mins prior to washing relative to control. As to conditions: 0.25 h.
Series [11] has the same target. The series can be described thus: Irreversible inhibition of human recombinant MAO-B at 1 uM preincubated for 15 mins followed by repeated washing by centrifugation-ultrafiltration method relative to control.
For series [12], the target named is Acetylcholinesterase (Electrophorus electricus) (UniProt O42275). The series can be described thus: Mixed-type inhibition of electric eel AChE using acetylthiocholine chloride as substrate assessed as increase in Km at 60 to 100 nM preincubated for 15 mins followed by substrate addition by Lineweaver-Burk plot analysis.

Active and inactive are the calls of the source. No cut-off for these calls is given here.

Chain of Cholinesterase (P81908 whole entry): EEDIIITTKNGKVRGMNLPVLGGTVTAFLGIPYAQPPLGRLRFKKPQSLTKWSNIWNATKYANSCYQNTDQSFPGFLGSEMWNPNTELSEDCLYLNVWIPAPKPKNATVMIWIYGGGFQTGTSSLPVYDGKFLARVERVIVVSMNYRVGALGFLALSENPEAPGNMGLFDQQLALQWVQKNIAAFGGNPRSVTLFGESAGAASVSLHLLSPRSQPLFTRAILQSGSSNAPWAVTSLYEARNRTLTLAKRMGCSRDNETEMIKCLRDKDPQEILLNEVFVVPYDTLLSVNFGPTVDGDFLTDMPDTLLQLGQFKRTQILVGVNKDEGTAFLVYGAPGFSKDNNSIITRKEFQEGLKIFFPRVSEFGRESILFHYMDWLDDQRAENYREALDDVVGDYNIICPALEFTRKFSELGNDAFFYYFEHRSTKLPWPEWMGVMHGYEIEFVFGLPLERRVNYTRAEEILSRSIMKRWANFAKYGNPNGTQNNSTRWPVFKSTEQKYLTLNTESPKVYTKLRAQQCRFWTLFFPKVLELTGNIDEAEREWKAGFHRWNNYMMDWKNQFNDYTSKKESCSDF
Chain of Acetylcholinesterase (Electrophorus electricus, UniProt O42275) (O42275 whole entry): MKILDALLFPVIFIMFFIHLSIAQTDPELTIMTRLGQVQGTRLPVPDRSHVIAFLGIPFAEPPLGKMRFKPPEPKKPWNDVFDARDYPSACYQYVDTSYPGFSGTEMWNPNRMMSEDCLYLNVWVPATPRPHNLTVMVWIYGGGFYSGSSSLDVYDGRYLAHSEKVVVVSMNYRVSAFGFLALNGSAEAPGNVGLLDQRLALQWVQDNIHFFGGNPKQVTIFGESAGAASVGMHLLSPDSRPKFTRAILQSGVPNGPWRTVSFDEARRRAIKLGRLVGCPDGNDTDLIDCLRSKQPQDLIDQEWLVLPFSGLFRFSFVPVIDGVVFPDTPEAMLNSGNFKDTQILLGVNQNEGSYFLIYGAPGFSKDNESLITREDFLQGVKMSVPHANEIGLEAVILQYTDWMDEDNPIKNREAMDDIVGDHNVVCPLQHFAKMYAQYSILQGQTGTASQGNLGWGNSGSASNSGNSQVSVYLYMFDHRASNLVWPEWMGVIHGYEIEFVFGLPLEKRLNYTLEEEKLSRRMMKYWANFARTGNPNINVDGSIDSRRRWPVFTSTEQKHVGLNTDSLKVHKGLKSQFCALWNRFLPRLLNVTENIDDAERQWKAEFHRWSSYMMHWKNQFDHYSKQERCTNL
T3 sequence (P22303 whole entry): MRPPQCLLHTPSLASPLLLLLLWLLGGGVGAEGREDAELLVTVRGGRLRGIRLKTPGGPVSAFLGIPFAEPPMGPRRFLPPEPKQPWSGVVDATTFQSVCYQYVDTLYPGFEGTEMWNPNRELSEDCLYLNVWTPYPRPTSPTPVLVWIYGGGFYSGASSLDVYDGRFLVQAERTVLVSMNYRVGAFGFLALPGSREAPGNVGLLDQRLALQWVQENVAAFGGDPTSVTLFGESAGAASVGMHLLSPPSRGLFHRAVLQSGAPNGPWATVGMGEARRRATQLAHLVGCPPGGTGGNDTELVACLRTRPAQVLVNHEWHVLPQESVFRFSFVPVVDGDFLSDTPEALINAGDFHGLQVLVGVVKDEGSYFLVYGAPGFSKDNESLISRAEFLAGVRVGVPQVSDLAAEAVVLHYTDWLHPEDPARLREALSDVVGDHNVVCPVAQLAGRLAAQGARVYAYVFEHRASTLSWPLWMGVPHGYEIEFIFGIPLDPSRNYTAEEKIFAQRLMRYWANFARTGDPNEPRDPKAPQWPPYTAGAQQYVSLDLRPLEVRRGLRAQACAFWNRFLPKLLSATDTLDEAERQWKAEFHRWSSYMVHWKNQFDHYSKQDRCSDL
Chain of Acetylcholinesterase (Electrophorus electricus) (O42275 24-633 limits assumed): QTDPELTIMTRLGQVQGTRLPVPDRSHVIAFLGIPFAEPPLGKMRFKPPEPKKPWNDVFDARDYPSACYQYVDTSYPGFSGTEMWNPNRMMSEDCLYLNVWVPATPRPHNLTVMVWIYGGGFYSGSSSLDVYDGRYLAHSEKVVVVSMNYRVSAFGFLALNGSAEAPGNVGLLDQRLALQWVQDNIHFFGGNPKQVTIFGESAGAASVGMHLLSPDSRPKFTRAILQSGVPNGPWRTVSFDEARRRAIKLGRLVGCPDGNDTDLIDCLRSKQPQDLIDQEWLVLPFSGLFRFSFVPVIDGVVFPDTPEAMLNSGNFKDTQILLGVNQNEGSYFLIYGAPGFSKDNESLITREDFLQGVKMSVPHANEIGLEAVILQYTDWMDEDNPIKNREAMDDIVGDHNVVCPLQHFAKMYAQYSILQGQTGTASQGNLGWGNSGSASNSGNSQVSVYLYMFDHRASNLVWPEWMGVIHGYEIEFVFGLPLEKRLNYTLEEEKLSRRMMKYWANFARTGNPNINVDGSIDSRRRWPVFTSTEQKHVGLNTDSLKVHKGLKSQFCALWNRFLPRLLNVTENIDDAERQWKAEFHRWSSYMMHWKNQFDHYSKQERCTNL
Description for in vitro: Permeability of the compound at 100 mg/mL after 10 hrs by PAMPA

With `COc1ccc(/C=C2\COc3cc(OCCCCCCCCCCNc4c5c(nc6ccccc46)CCCC5)ccc3C2=O)cc1`, the IC50 (in general, the concentration needed to halve the response being measured) in [1] came to 3430 nM; against Cholinesterase, 6.2 nM; on Acetylcholinesterase [3], 888 nM. Besides, the inhibition at 100 µM in series [2] is 69.6%.

As to `CCN(CC)c1ccc(/C=C2\COc3cc(OCCCCCCNc4c5c(nc6ccccc46)CCCC5)ccc3C2=O)cc1`, the IC50 at Cholinesterase turned out to be 235 nM; at Acetylcholinesterase [3] it was 693 nM. For the same molecule, the inhibition at 100 µM in series [2] is 22.4%. The “inhibition (INH)” value in series [4] is listed as “Not Active”.

For `COc1ccc(/C=C2\COc3cc(OCCCCCCNc4c5c(nc6cc(Cl)ccc46)CCCC5)ccc3C2=O)cc1`, the figures for the IC50 (in [1]; against Cholinesterase; at Acetylcholinesterase [3]) were 1360 nM, 25.9 nM and 123 nM, respectively. The inhibition at 100 µM in [2] amounted to 15.3%.

Consider `COc1ccc(/C=C2\COc3cc(O)ccc3C2=O)cc1` [BONDUCELLIN], for which the IC50 in series [1] was 1060 nM; at Cholinesterase, > 100000 nM; at Acetylcholinesterase [3], > 100000 nM. Moreover, in [2], the inhibition at 100 µM came out at 24.1%.

Turning to `O=C1/C(=C/c2ccc(F)cc2)COc2cc(OCCCCCCNc3c4c(nc5ccccc35)CCCC4)ccc21`, the IC50 stood at 1090 nM in series [1], 44.2 nM at Cholinesterase, 105 nM against Acetylcholinesterase [5] and 70.1 nM at Acetylcholinesterase [3]. In addition, the inhibition at 100 µM in series [2] was found to be 58.4%. Besides, the Papp (usually a coefficient for how fast a substance crosses the barrier) at 10 h, 100 mg/mL in “in vitro” was 4 ×10⁻⁶ cm/s.

For `COc1ccc(/C=C2\COc3cc(OCCCCCCNc4c5c(nc6ccccc46)CCCC5)ccc3C2=O)cc1`, the IC50 came to 401 nM in [1], 33 nM against Cholinesterase, 157 nM on Acetylcholinesterase [5] and 67.9 nM on Acetylcholinesterase [3]. Moreover, the inhibition result (on Acetylcholinesterase [6]; in series [8]; in series [12]) was “Active” throughout. Moreover, in series [2], the inhibition at 100 µM turned out to be 48.3%. For the same molecule, the inhibition at 0.4 µM came to 33.5% in series [7] and 47.1% in [10]. In addition, the figures for the inhibition at 1 µM in series [9] and in [11] were 78.4% and 67.5%, respectively. This molecule returned a Papp at 10 h, 100 mg/mL in “in vitro” of 6.8 ×10⁻⁶ cm/s.

For the molecule `COc1ccc(/C=C2\COc3cc(OCCCCCCCCCNc4c5c(nc6ccccc46)CCCC5)ccc3C2=O)cc1`, the values for the IC50 (in series [1]; against Cholinesterase; against Acetylcholinesterase [3]) were 437 nM, 30.9 nM and 169 nM, respectively. Moreover, in series [2], the inhibition at 100 µM amounted to 60.2%.

As for `Cc1ccc(/C=C2\COc3cc(OCCCCCCNc4c5c(nc6ccccc46)CCCC5)ccc3C2=O)cc1`, the figures for the IC50 (in series [1]; at Cholinesterase; against Acetylcholinesterase [3]) were 1240 nM, 54.6 nM and 129 nM, respectively. For the same molecule, the inhibition at 100 µM in [2] is 60.5%.

Turning to `COc1ccc(CC2COc3cc(OCCCCCCNc4c5c(nc6ccccc46)CCCC5)ccc3C2=O)cc1` (centres undefined), the IC50 in series [1] worked out at 1110 nM; against Cholinesterase it was 27.4 nM; against Acetylcholinesterase [3], 91.7 nM. In series [2], the inhibition at 100 µM amounted to 78.2%. Also, in the series “in vitro”, the Papp at 10 h, 100 mg/mL came out at 2.8 ×10⁻⁶ cm/s.

`COc1cc(/C=C2\COc3cc(OCCCCCCNc4c5c(nc6ccccc46)CCCC5)ccc3C2=O)cc(OC)c1OC`: the results for the IC50 against Cholinesterase and at Acetylcholinesterase [3] were 109 nM and 106 nM, respectively. The inhibition at 100 µM in [2] came out at 25.7%. The “inhibition (INH)” value in series [4] is “Not Active”.

On to `COc1ccc(/C=C2\COc3cc(OCCCCCNc4c5c(nc6ccccc46)CCCC5)ccc3C2=O)cc1`, for which the IC50 in [1] was found to be 1160 nM; against Cholinesterase it was 23.6 nM; on Acetylcholinesterase [5], 98 nM; at Acetylcholinesterase [3], 78.3 nM. In addition, the inhibition at 100 µM in series [2] was determined as 58.4%. In addition, the Papp at 10 h, 100 mg/mL in the series “in vitro” worked out at 6.6 ×10⁻⁶ cm/s.

For the molecule `COc1ccc(/C=C2\COc3cc(OCCCCCCNc4c5c(nc6ccccc46)CCCC5)ccc3C2=O)cc1OC`, the IC50 in series [1] came out at 19700 nM; against Cholinesterase, 34.7 nM; at Acetylcholinesterase [3], 117 nM. Besides, the inhibition at 100 µM in series [2] was 51.6%.

Turning to `COc1ccccc1/C=C1\COc2cc(OCCCCCCNc3c4c(nc5ccccc35)CCCC4)ccc2C1=O`, the IC50 in series [1] turned out to be 1790 nM; against Cholinesterase, 29.9 nM; against Acetylcholinesterase [3] it was 151 nM. The inhibition at 100 µM in series [2] turned out to be 70.3%.

In the case of `COc1ccc(/C=C2\COc3cc(OCCCCCCCCNc4c5c(nc6ccccc46)CCCC5)ccc3C2=O)cc1`, the IC50 is 518 nM in [1], 93.1 nM at Cholinesterase, 122 nM against Acetylcholinesterase [5] and 68.5 nM on Acetylcholinesterase [3]. For the same molecule, the inhibition at 100 µM in series [2] came to 64.8%. Moreover, the Papp at 10 h, 100 mg/mL in “in vitro” was found to be 4.9 ×10⁻⁶ cm/s.

With `O=C1/C(=C/c2ccc(Cl)cc2)COc2cc(OCCCCCCNc3c4c(nc5ccccc35)CCCC4)ccc21`, the figures for the IC50 (in [1]; against Cholinesterase; at Acetylcholinesterase [3]) were 15400 nM, 44.5 nM and 101 nM, respectively. The inhibition at 100 µM in series [2] was found to be 23.3%. Also, in the series “in vitro”, the Papp at 10 h, 100 mg/mL turned out to be 1.1 ×10⁻⁶ cm/s.

On to `COc1ccc(/C=C2\COc3cc(OCCCCCCCCNc4c5c(nc6cc(Cl)ccc46)CCCC5)ccc3C2=O)cc1`, for which the values for the IC50 (in [1]; against Cholinesterase; against Acetylcholinesterase [3]) were 1560 nM, 612 nM and 188 nM, respectively. The inhibition at 100 µM in series [2] was determined as 33.1%.

For `CN(C)c1ccc(/C=C2\COc3cc(OCCCCCCNc4c5c(nc6ccccc46)CCCC5)ccc3C2=O)cc1`, the IC50 in series [1] stood at 1030 nM; against Cholinesterase, 65.7 nM; against Acetylcholinesterase [3], 115 nM. The inhibition at 100 µM in series [2] stood at 31.5%.

With `COc1cccc(/C=C2\COc3cc(OCCCCCCNc4c5c(nc6ccccc46)CCCC5)ccc3C2=O)c1`, the IC50 amounted to 2200 nM in [1], 47.1 nM on Cholinesterase and 142 nM against Acetylcholinesterase [3]. The inhibition at 100 µM in series [2] was 54.1%.
